From PubChem BioAssay AID977621 (Broad Institute, 2014)
Records with an inconclusive call do not appear. Calls of active or inactive are those of the source.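 How the source made its calls: active means Wild-type ribosome reporter drop at least double the humanized mutant ribosome reporter drop, growth loss under a set limit; inconclusive means no clear call, values can overlap the other calls; inactive means the rest.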

Tested on: E. coli wild-type GFP strain growth, fluorescence, 24 h
Assay: growth inhibition of wild-type GFP E. coli, dose response, H69 mutant RFP, cherry-pick (AID 977621);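 further: wild-type GFP and H69 mutant RFP strains grown together 50/50 in each well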
Details: not given

Compound | AC50
Fc1ccc(-n2cc(CNCCc3cccnc3)c(-c3ccccc3Cl)n2)cc1 | > 100 µM (inactive)
CC(NCc1ccc(S(N)(=O)=O)cc1)C(=O)Nc1cc([N+](=O)[O-])ccc1Cl (stereo not given) | > 100 µM (inactive)
CCCNC(=O)c1cc(C2CCCN(S(=O)(=O)c3cccc4cccnc34)C2)on1 (stereo not given) | > 100 µM (inactive)
Nc1ccc(C(=O)Nc2ccc3nc(-c4ccncc4)[nH]c3c2)cc1 | > 100 µM (inactive)
COc1ccc(NC(=O)c2sccc2-n2cccc2)cc1 | > 100 µM (inactive)
Cc1cccc(CN2C(=O)c3ccccc3Sc3ccc(C(=O)O)cc32)c1 | > 100 µM (inactive)
CSc1nc(SC(C)C(=O)O)c2c3c(sc2n1)COC(C)(C)C3 (stereo not given) | > 100 µM (inactive)
COc1ccc(Cl)cc1NC(=O)C1Cc2ccccc2CN1S(C)(=O)=O (stereo not given) | > 100 µM (inactive)
O=C(NCc1nnnn1-c1ccc(Cl)cc1)c1ccc([N+](=O)[O-])o1 | > 100 µM (inactive)
COC(=O)c1ccccc1OCCOCCOc1cccc2ccc(C)nc12 | > 100 µM (inactive)
CCn1nc(C(=O)OCc2cccc(S(=O)(=O)N(C)C)c2)c2ccccc2c1=O | > 100 µM (inactive)
CC(C)Nc1nnc(SCC(=O)Nc2sccc2C#N)s1 | > 100 µM (inactive)
Cc1ccc2nc(SCC(=O)c3ccc(O)cc3O)[nH]c2c1 | > 100 µM (inactive)
OCCCc1cn(-c2ccccc2)c2ccccc12 | > 100 µM (inactive)
Cc1ccc(Nc2cc(C(=O)NCCCN3CCOCC3)c3ccccc3n2)cc1C | > 100 µM (inactive)
Cc1cc(C)nc(SCc2cn3c(C)cccc3n2)n1 | > 100 µM (inactive)
COc1cc(C(=O)Nc2nnc(S(=O)(=O)N3CCCCCC3)s2)cc(OC)c1OC | > 100 µM (inactive)
O=C(NCc1cccnc1)c1ccc(COc2ccccc2Br)o1 | > 100 µM (inactive)
Cc1ccc(-c2nc3ccc(NS(=O)(=O)c4ccccc4)cc3[nH]2)o1 | > 100 µM (inactive)
O=C1NC(=O)C2(Cc3cc([N+](=O)[O-])ccc3N3CCN(C(=O)c4ccccc4)CC32)C(=O)N1 (stereo not given) | > 100 µM (inactive)

Compound | AC50
COc1ccc(NC(=O)Nc2cccc3c2O[C@H](CN(C)S(=O)(=O)c2ccc(Cl)cc2)[C@@H](C)CN([C@H](C)CO)C3=O)cc1 | > 100 µM (inactive)
O=C(C[n+]1ccn(-c2ccccc2)c1)c1ccc([N+](=O)[O-])cc1 | > 100 µM (inactive)
COc1ccccc1CCNC(=O)c1cccc(NC(=O)CC2SC(N3CCCCC3)=NC2=O)c1 (stereo not given) | > 100 µM (inactive)
COC(=O)COc1ccc(Cl)cc1C1Nc2ccccc2C(=O)N1c1ccc(OC)cc1 (stereo not given) | > 100 µM (inactive)
CN1CCN(C(=O)c2cc3sc4ccccc4c3s2)CC1 | > 100 µM (inactive)
O=C(CCc1ccccc1)Nc1sc2c(c1C(=O)O)CCCC2 | > 100 µM (inactive)
O=C(C[C@@H]1CC[C@@H]2[C@H](COC[C@H](O)CN2C(=O)Nc2ccc(Cl)cc2)O1)N1CCCCC1 | > 100 µM (inactive)
CSc1ccccc1OCc1cc(C(=O)N[C@H]2CCCCNC2=O)no1 | > 100 µM (inactive)
CCc1ccc2nc(N(CCCN(C)C)C(=O)c3ccc4c(c3)OCCO4)sc2c1 | > 100 µM (inactive)
CO[C@@H]1CN(C)C(=O)c2cc(NC(=O)C3CCCC3)ccc2OC[C@@H](C)N(C(=O)Nc2ccc(C(F)(F)F)cc2)C[C@H]1C | > 100 µM (inactive)
O=C(Nc1ccc2nc3n(c(=O)c2c1)CCCCC3)c1c(F)ccc([N+](=O)[O-])c1F | > 100 µM (inactive)
Cc1cc2nc(-c3ccc4c(c3)CCC4)ccn2n1 | > 100 µM (inactive)
Cc1sc2ncnc(N3CCCC(C)C3)c2c1C (stereo not given) | > 100 µM (inactive)
CCOC(=O)c1ccc(CC(=O)c2oc3cc(O)ccc3c2C)o1 | > 100 µM (inactive)
O=C(N[C@@H](Cc1ccccc1)C(=O)OCc1ccccc1)c1nc[nH]c1C(=O)NC1CCNCC1 | > 100 µM (inactive)
O=C1c2ccccc2C(c2nnnn2Cc2ccccc2)N1CCc1ccc(O)cc1 (stereo not given) | > 100 µM (inactive)
C[C@@H](NC(=O)C[C@@H]1CC[C@@H]2[C@H](COC[C@H](O)CN2C(=O)Nc2cccc(F)c2)O1)c1ccccc1 | > 100 µM (inactive)
O=C1Nc2ccc(F)cc2C12Nc1ccccc1-c1nnc(SCc3ccccc3)nc1O2 (stereo not given) | > 100 µM (inactive)
Cc1cc(C(=O)COC(=O)c2ccc(Br)o2)c(C)n1C | > 100 µM (inactive)
CCOc1ccccc1C(=O)OCC(=O)NCCc1ccc(OC)cc1 | > 100 µM (inactive)

Compound | AC50
COc1ccc(C(=O)COC(=O)c2ccccc2O)c(OC)c1 | > 100 µM (inactive)
CCOC(=O)c1c(CS(=O)(=O)c2ccccc2)n(C)c2cc(Br)c(O)cc12 | > 100 µM (inactive)
O=C(C[C@H]1CC[C@@H]2[C@H](COC[C@@H](O)CN2C(=O)Nc2cc(Cl)cc(Cl)c2)O1)N1CCOCC1 | > 100 µM (inactive)
CC1(C(=O)NS(=O)(=O)c2cccc(C#N)c2)CCN1C(=O)C1(c2ccc(Cl)cc2)CCC1 (stereo not given) | > 100 µM (inactive)
CN(Cc1ccccc1)C(=O)c1[nH]cnc1C(=O)NCc1ccccc1 | > 100 µM (inactive)
CSc1ccccc1C(=O)NCCc1ccc(S(=O)(=O)N2CCCCC2)cc1 | > 100 µM (inactive)
Cc1ccc(C(=O)OCC(=O)c2c[nH]c3ccccc23)cc1NC(=O)c1ccco1 | > 100 µM (inactive)
Cc1cc(OCCCCOc2ccc(S(N)(=O)=O)c(C)c2)ccc1S(N)(=O)=O | > 100 µM (inactive)
NC(=O)c1ccsc1NC(=O)COC(=O)CSc1ccc(Cl)cc1 | > 100 µM (inactive)
O=C(CSc1n[nH]c(=O)n1C1CC1)Nc1ccc(Cl)c(Cl)c1 | > 100 µM (inactive)
COc1ccccc1-c1cc2nc(NCCc3ccncc3)ccn2n1 | > 100 µM (inactive)
CS(=O)(=O)c1cccc(C(=O)Nc2cccc(-c3nc4ccccc4[nH]3)c2)c1 | > 100 µM (inactive)
CCc1cc2c(NC(Cc3c[nH]c4ccccc34)C(=O)O)nc(C)nc2s1 (stereo not given) | > 100 µM (inactive)
CSc1ccccc1NC(=O)CN(C)CC(=O)c1c(C)[nH]c2ccccc12 | > 100 µM (inactive)
COCc1cc(C)nc(SCC[N+](C)(C)CC(=O)c2ccc(Br)cc2)c1C#N | > 100 µM (inactive)
CN(C)CCCNc1ccc(-c2cc(Nc3cccc(Cl)c3)ncn2)cn1 | > 100 µM (inactive)
CN1C(=O)c2cc(NC(=O)c3cccc(F)c3)ccc2OC[C@H]2O[C@@H](CC(=O)N3CCc4ccccc4C3)CC[C@@H]21 | > 100 µM (inactive)
CC(=O)Nc1ccc(NS(=O)(=O)c2ccc(Cl)s2)cc1 | > 100 µM (inactive)
O=C(Cn1cnc2ccccc21)c1ccc(Br)cc1 | > 100 µM (inactive)
Fc1cccc(Cc2noc(CN3CCCCC3CCc3ccccn3)n2)c1 (stereo not given) | > 100 µM (inactive)

Same assay, conditions: E. coli mixed culture, 24 h; measured here: total growth OD600, test 2

Compound | AC50 [µM]
Fc1ccc(-n2cc(CNCCc3cccnc3)c(-c3ccccc3Cl)n2)cc1 | 27.8
Cc1ccc(-c2nc(CN3CCCCC3c3cccc(F)c3)c(C)o2)o1 (stereo not given) | > 100
COc1ccc(CC(=O)Oc2ccc(C)cc2C)cc1 | > 100
COc1cc(OC)cc(C(=O)Nc2ccc(S(=O)(=O)Nc3cnc4ccccc4n3)cc2)c1 | 33
CCn1nc(C(=O)OCc2cccc(S(=O)(=O)N(C)C)c2)c2ccccc2c1=O | > 100
COc1cc(OC)c(NS(=O)(=O)c2cccc(C(=O)OCC(=O)NCC3CCCO3)c2)cc1Cl (stereo not given) | > 100
COc1cc(C(=O)Nc2nnc(S(=O)(=O)N3CCCCCC3)s2)cc(OC)c1OC | 36.3
O=C(NCc1cccnc1)c1ccc(COc2ccccc2Br)o1 | 46.2
Cc1ccc(S(=O)(=O)NCc2c(-c3ccccc3)noc2C)cc1 | > 100
COC(=O)COc1ccc(Cl)cc1C1Nc2ccccc2C(=O)N1c1ccc(OC)cc1 (stereo not given) | > 100
O=C(C[C@@H]1CC[C@@H]2[C@H](COC[C@H](O)CN2C(=O)Nc2ccc(Cl)cc2)O1)N1CCCCC1 | 46
O=C(Cc1ccc(Br)cc1)Nc1cccc(-c2cn3c(n2)SCC3)c1 | > 100
C[C@@H]1CN([C@@H](C)CO)C(=O)c2cc(NS(=O)(=O)c3ccccc3)ccc2O[C@@H]1CN(C)Cc1ccc(C(=O)Nc2ccccc2N)cc1 | 50.6
O=C(CCCOc1ccc(Cl)cc1Cl)Nc1ccccc1C(=O)O | 33.7
CCc1ccc2nc(SCC(=O)Nc3ccccc3N3CCOCC3)c(C#N)cc2c1 | > 100
Cc1cc2nc(-c3ccc4c(c3)CCC4)ccn2n1 | > 100
Cc1ccc(C2NC(c3ccc(C)cc3)C(C)C(=O)C2C)cc1 (stereo not given) | 47.8
Cc1ccc(-c2c[n+](CC(=O)Nc3ccccc3)c3n2CCC3)cc1 | > 100
Cc1cc(C(=O)COC(=O)c2ccc(Br)o2)c(C)n1C | 48.4
CC(C)(C)c1ccc(N2C(=O)CSC2c2cccnc2)cc1 (stereo not given) | > 100
Cc1ccc(C(=O)NCC(=O)OCC(=O)Nc2cccc(S(=O)(=O)N3CCCC3)c2)cc1C | > 100
CCc1cc2cc(OC)ccc2nc1SCC(=O)Nc1cc(OC)c(OC)cc1C(=O)O | > 100

Compound | AC50 [µM]
CCOC(=O)c1c(CS(=O)(=O)c2ccccc2)n(C)c2cc(Br)c(O)cc12 | > 100
Cc1noc(C)c1NC(=O)Nc1ccc2c(c1)C(=O)N([C@H](C)CO)C[C@H](C)[C@@H](CN(C)C(=O)Nc1ccc3c(c1)OCO3)OCCCC[C@@H](C)O2 | > 92
COc1ccc(NC(=O)CN(c2ccccc2OC)S(=O)(=O)c2cccs2)cc1Cl | > 100
CCOc1ccccc1/C=C/c1cc(C(=O)O)c2ccccc2n1 | 35.3
COc1cccc(NC2=Nc3cccc4cccc2c34)c1 | > 100
CC1(C(=O)NS(=O)(=O)c2cccc(C#N)c2)CCN1C(=O)C1(c2ccc(Cl)cc2)CCC1 (stereo not given) | > 100
CN(Cc1ccccc1)C(=O)c1[nH]cnc1C(=O)NCc1ccccc1 | > 100
O=C(Cc1cccc(NC(=O)C2CCN(C(=O)C3CCCCC3)CC2)c1)Nc1cccc(C(=O)N2CCCC2)c1 | > 100
CC(NC(=O)C12CC3CC(C)(CC(C)(C3)C1)C2)c1ccncc1 (stereo not given) | > 100
O=C1OC[C@@H]2CCCN2C(=O)[C@@H](CC(=O)N(CCO)Cc2ccccc2)C/C=C\C[C@H]1Cc1ccc(F)cc1 | > 100
CCCCNC(=O)c1onc(CSc2cc(C)cc(C)c2)c1C(=O)O | 34.2
Cc1cc(OCCCCOc2ccc(S(N)(=O)=O)c(C)c2)ccc1S(N)(=O)=O | 49.4
NC(=O)c1ccsc1NC(=O)COC(=O)CSc1ccc(Cl)cc1 | > 100
COc1ccc(OC)c(-c2csc(NC(=O)C3COc4ccccc4O3)n2)c1 (stereo not given) | > 100
CSc1ccccc1NC(=O)CN(C)CC(=O)c1c(C)[nH]c2ccccc12 | 46.2
CC1CCCN(c2ccc(C(=O)NCCc3ccccc3)cn2)C1 (stereo not given) | > 100
C[C@@H]1CCCCO[C@H](CN(C)C)[C@H](C)CN([C@H](C)CO)C(=O)c2cc(NC(=O)Nc3cccc4ccccc34)ccc2O1 | > 100
CN(C)CCCNc1ccc(-c2cc(Nc3cccc(Cl)c3)ncn2)cn1 | > 100
Cc1noc(C)c1NC(=O)Nc1ccc2c(c1)C(=O)N([C@H](C)CO)C[C@H](C)[C@H](CN(C)C(=O)Nc1ccc3c(c1)OCO3)OCCCC[C@@H](C)O2 | > 100
CCOCCCNC(=O)C(NC(=O)c1ccccc1O)c1ccc(C)cc1 (stereo not given) | > 100
COc1cccc(CN(C)Cc2nc(Cc3ccccc3Cl)no2)c1 | 51.7
Fc1cccc(Cc2noc(CN3CCCCC3CCc3ccccn3)n2)c1 (stereo not given) | > 100

Same assay, conditions: measured here: total growth OD600, test 2

Compound | AC50 [µM]
O=C1CC(=O)N(Cc2ccccc2)C(=O)N1CCCCCCN1C(=O)CC(=O)N(Cc2ccccc2)C1=O | > 100
